Among the test systems are SW-620 colon; OVCAR-3 ovarian; U251 CNS; UO-31 renal; T-47D breast; HOP-92 NSCLC; A498 renal; OVCAR-4 ovarian; A549 NSCLC; HCC-2998 colon.
Common to all, as to assay: NCI-60 cell line screen, 48 h

The structures appear in SMILES notation.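 Method: 48-hour compound exposure of cells in 96-well plates, five concentrations, linear interpolation of endpoints. GI50: concentration for 50% inhibition of growth. Definition used: TGI = concentration required for complete inhibition of growth.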 A value given as a limit tells only on which side of the number the result lay.

As for `O=[N+]([O-])c1cccc(/C=N/NC2=CS(=O)(=O)C=C2)c1`, the TGI with SW-620 colon, in the test on OVCAR-3 ovarian, in the test on U251 CNS, in the test with UO-31 renal, with T-47D breast and with HOP-92 NSCLC was greater than 100 µM throughout. Besides, the TGI in the test on A498 renal, with OVCAR-4 ovarian and in the test on A549 NSCLC was greater than 100 µM in each case.
On to `CO/N=C(\COc1ccc2c(=O)c3ccccc3oc2c1)c1ccccc1`, for which the GI50 was 55.9 µM in the test with SW-620 colon; 27.4 µM with OVCAR-3 ovarian; 26.6 µM in the test on U251 CNS; 24.2 µM in the test on UO-31 renal; greater than 100 µM in the test with T-47D breast; 25.7 µM in the test on HOP-92 NSCLC. Moreover, the GI50 in the test with A498 renal is 20.3 µM; in the test on OVCAR-4 ovarian, 84.3 µM; in the test on A549 NSCLC it was 35.2 µM. In addition, the TGI with SW-620 colon is greater than 100 µM; in the test on OVCAR-3 ovarian, 79.3 µM; in the test on U251 CNS, 79.2 µM; with UO-31 renal it was 63 µM; with T-47D breast, greater than 100 µM; with HOP-92 NSCLC, 64 µM. In addition, the TGI was 47.7 µM in the test with A498 renal, greater than 100 µM in the test with OVCAR-4 ovarian and 99.4 µM in the test on A549 NSCLC.
Regarding `O=c1c2c([nH]c3nccn13)CCC2`, the TGI in the test with SW-620 colon, in the test on OVCAR-3 ovarian, with U251 CNS, in the test with UO-31 renal, in the test with T-47D breast and in the test with HOP-92 NSCLC was greater than 10 µM each time. The TGI in the test with A498 renal is 8.91 µM; in the test with OVCAR-4 ovarian, greater than 10 µM; in the test on A549 NSCLC, greater than 10 µM.
On to `COc1c(C(C)=O)c(OCCCCOc2c(C(C)=O)c(OC)c3ccoc3c2OC)c(OC)c2occc12`, for which the GI50 in the test with HCC-2998 colon was greater than 100 µM; in the test on SW-620 colon it was greater than 100 µM; in the test on OVCAR-3 ovarian, 3.75 µM; in the test with U251 CNS, greater than 28.1 µM; in the test on UO-31 renal, 2.34 µM; with T-47D breast, 2.02 µM. Also, the results for the GI50 in the test on A498 renal, in the test on OVCAR-4 ovarian and with A549 NSCLC were greater than 100 µM, 3.39 µM and 3.35 µM, respectively. The TGI is greater than 100 µM with HCC-2998 colon; greater than 100 µM with SW-620 colon; greater than 100 µM in the test with OVCAR-3 ovarian; greater than 100 µM with U251 CNS; greater than 100 µM with UO-31 renal; greater than 26.4 µM in the test with T-47D breast. Moreover, the TGI in the test with A498 renal, in the test with OVCAR-4 ovarian and in the test on A549 NSCLC was greater than 100 µM in each case.
As to `COc1cc2c(cc1OC)-c1ncc3c(OC)ccc(OC)c3c1C2`, the GI50 is 22.6 µM in the test with HCC-2998 colon; 35.1 µM in the test with SW-620 colon; 15.4 µM with OVCAR-3 ovarian; 14.6 µM with U251 CNS; 18.3 µM in the test with UO-31 renal; 29 µM in the test on T-47D breast. Also, the figures for the GI50 with HOP-92 NSCLC, in the test with OVCAR-4 ovarian and with A549 NSCLC were 39.4 µM, 71.9 µM and 16.1 µM, respectively. Moreover, the TGI in the test with HCC-2998 colon is greater than 100 µM; with SW-620 colon it was greater than 100 µM; in the test on OVCAR-3 ovarian, 46.8 µM; in the test with U251 CNS it was 56.4 µM; in the test with UO-31 renal it was 60 µM; with T-47D breast, greater than 100 µM. Besides, the TGI with HOP-92 NSCLC, in the test on OVCAR-4 ovarian and with A549 NSCLC was greater than 100 µM each time.
Take `COc1ccc(-c2c(C)c(C(=O)O)nc(-c3ccc4c(O)c(OC)c5c(c4n3)=NC(C)(C)N=5)c2N)c(O)c1OC`: the TGI in the test on HCC-2998 colon was 35.7 µM; in the test on SW-620 colon, 35.4 µM; in the test with OVCAR-3 ovarian, 43.2 µM; in the test on U251 CNS, 25.8 µM; in the test on UO-31 renal it was 27.5 µM; with T-47D breast, greater than 100 µM. The TGI is greater than 100 µM with HOP-92 NSCLC, greater than 100 µM with OVCAR-4 ovarian and 55.5 µM in the test with A549 NSCLC.
Take `O=C(O)C(Cc1cnc[nH]1)N1C(=O)c2ccccc2C1=O` (configuration not stated): the TGI with SW-620 colon, in the test on OVCAR-3 ovarian, in the test with U251 CNS, in the test on UO-31 renal, in the test on T-47D breast and in the test on HOP-92 NSCLC was greater than 100 µM in each case. Further, the TGI in the test on A498 renal, in the test with OVCAR-4 ovarian and in the test with A549 NSCLC was greater than 100 µM each time.
For the compound `Cc1ccc(/C=C(\C#N)c2cc3ccccc3n2C)cc1`, the GI50 in the test on HCC-2998 colon was 0.484 µM; in the test on SW-620 colon, 0.361 µM; in the test with OVCAR-3 ovarian it was 0.361 µM; in the test on U251 CNS it was 0.406 µM; in the test with UO-31 renal, 0.853 µM; with T-47D breast it was 0.587 µM. Further, the GI50 in the test with HOP-92 NSCLC was 1.13 µM; in the test with A498 renal it was 0.217 µM; with A549 NSCLC, 0.463 µM. Besides, the TGI in the test on HCC-2998 colon, in the test on SW-620 colon, with U251 CNS, in the test on UO-31 renal, in the test on T-47D breast and in the test on HOP-92 NSCLC was greater than 100 µM each time. Also, the TGI with A498 renal was 0.808 µM; in the test with A549 NSCLC, greater than 100 µM.
On to `Nc1ccn(C2CC(F)C(CO)O2)c(=O)n1` (configuration not stated), for which the GI50 with HCC-2998 colon, in the test on OVCAR-3 ovarian, with U251 CNS, in the test with UO-31 renal, in the test with T-47D breast and in the test with HOP-92 NSCLC was greater than 100 µM in each case. The GI50 with OVCAR-4 ovarian and in the test with A549 NSCLC was greater than 100 µM in each case. The TGI in the test on HCC-2998 colon, in the test on OVCAR-3 ovarian, with U251 CNS, in the test with UO-31 renal, in the test with T-47D breast and in the test with HOP-92 NSCLC was greater than 100 µM each time. Moreover, the TGI in the test on OVCAR-4 ovarian and with A549 NSCLC was greater than 100 µM each time.
For `OC1(c2ccccc2)C2CC=CC2C1(c1ccccc1)c1ccccc1` (configuration not stated), the TGI in the test on HCC-2998 colon is 48.3 µM; in the test with SW-620 colon it was greater than 100 µM; in the test with OVCAR-3 ovarian it was greater than 100 µM; with U251 CNS, greater than 100 µM; in the test on UO-31 renal it was greater than 100 µM; in the test with T-47D breast it was greater than 100 µM. In addition, the TGI is greater than 100 µM in the test with HOP-92 NSCLC, 57 µM in the test with A498 renal and greater than 100 µM with A549 NSCLC.

These data come from PubChem BioAssay (NCI).
